Experimental data from paper PMC6711404 (Science signaling, 2017).
“And” between values parts separate entries of the source, which are not always exact repeats. Equal values may be shown once.

Tests used:
[1] = test system: pRII (PKA-II signaling activity) in mouse sensory neurons; format: cell-based
[2] = test system: pRII (PKA-II signaling activity) in rat sensory neurons; format: cell-based; conditions: for IC50: read-out: IC50 on pRII signals induced by 5-HT

| Molecule | pRII response in Nav1.7-/- versus Nav1.7+/+ cultures [1] | Neuron subgroups in which pRII intensity is increased [2] | Effect on 5-HT-induced pRII intensity [2] | also measured |
| --- | --- | --- | --- | --- |
| 8-bromoadenosine-3′,5′-cyclic monophosphorothioate, Sp-isomer, and acetoxymethyl ester [Sp-8-Br-cAMPS-AM] | the same |  |  |  |
| NCCc1c[nH]c2ccc(O)cc12 [5-HT] | the maximum amplitude but not the EC50 of the pRII response to 5-HT was reduced | predominately activated RIIβ(+) neurons |  | Numbers of RIIβ(+) neurons responsive to 5-HT [1]: 27.8 ± 1.3% and 19.1 ± 1.2%; Smaller sized sensory neurons with increased pRII signals [1]: 17% and 21% |
| C=C[C@@]1(C)CC(=O)[C@]2(O)[C@@]3(C)[C@@H](O)CCC(C)(C)[C@@H]3[C@H](O)[C@H](OC(C)=O)[C@@]2(C)O1 [Fsk, forskolin] | the same | all rat sensory neurons, both RIIβ(-) and RIIβ(+) neurons |  | Population of Fsk-responding cells [1]: 28% and 23% |
| Cn1cc(C(=O)OCC2CCN(CCNS(C)(=O)=O)CC2)c2ccccc21 [GR113808] |  |  | blocked | IC50 [2]: 0.0086 µM |
| CCCCC[C@H](O)/C=C/[C@@H]1[C@H]2C/C(=C/CCCC(=O)O)O[C@H]2C[C@H]1O [PGI2, prostacyclin] | the same | predominately activated RIIβ(+) neurons |  |  |
| O=C1CC[C@@]2(O)[C@H]3Cc4ccc(O)c5c4[C@@]2(CCN3CC2CC2)[C@H]1O5 [naltrexone] |  |  | no effect | Effect on baseline amount of pRII [1]: Neither fentanyl nor naltrexone altered; Effect on basal pRII intensity [2]: no effect |
| CTOP |  |  | did not affect | Effect on DAMGO inhibition of the 5-HT-induced increase in pRII [2]: partially; Effect on basal pRII intensity [2]: did not affect |
| DAMGO |  |  |  | Inhibition of 5-HT-induced pRII: Nav1.7-/- versus wild-type neurons [1]: The IC50 to inhibit 5-HT-induced pRII was similar, but the maximum response was greater; IC50 [2]: 0.321 µM |
